Test results taken from PubChem BioAssay (NCI).
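Where inhibition never reached the appropriate level, the endpoint shown equals the highest concentration tested. Otherwise, values were interpolated linearly from a five-concentration, 48-hour dose response in 96-well plates. TGI marks complete inhibition of growth.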

How the values were obtained:
Assay in all cases: growth of human tumour cells (NCI), 48 h
[1] = tested on: M14 melanoma
[2] = tested on: HCT-15 colon
[3] = tested on: SF-539 CNS
[4] = tested on: SK-OV-3 ovarian
[5] = tested on: ACHN renal
[6] = tested on: MOLT-4 leukemia
[7] = tested on: HS 578T breast
[8] = tested on: U251 CNS
[9] = tested on: A498 renal
[10] = tested on: PC-3 prostate

Row | SMILES | TGI [1] | TGI [2] | TGI [3] | TGI [4] | TGI [5] | TGI [6] | TGI [7] | TGI [8] | TGI [9] | TGI [10]
1 | N#Cc1nc2cc(Cl)ccc2nc1N1CCN(c2ccc([N+](=O)[O-])cc2)CC1 | > 100 µM | > 100 µM | > 100 µM | > 100 µM | > 100 µM | > 100 µM | > 100 µM | > 100 µM | > 100 µM | > 100 µM
2 | C[C@]12CC[C@H]3[C@@H](CCC4=CC(=O)C=C[C@@]43OC(=O)C(F)(F)F)[C@@H]1CCC2=O | > 100 µM | > 100 µM | > 100 µM | > 100 µM | > 100 µM | > 100 µM | > 100 µM | > 100 µM | > 100 µM | > 100 µM
3 | CC(C)(C)OC(=O)[C@@H]1CCC(=O)N1C1(c2ccccc2)c2ccccc2-c2ccccc21 | > 100 µM | > 100 µM | 35.7 µM | > 100 µM | > 100 µM | 51.5 µM | > 100 µM | 73.8 µM | > 100 µM | > 100 µM
4 | CSC(SC)=C(C#N)C(=O)Nc1cccc(Cl)c1 | > 100 µM | > 100 µM | > 100 µM | > 100 µM | > 100 µM | 87.2 µM | > 100 µM | > 100 µM | > 100 µM | > 100 µM
5 | NNC(=O)Nc1nc2ccc(NN)cc2[nH]1 | 84.4 µM | > 100 µM | 28.5 µM | > 100 µM | > 100 µM | 32.3 µM | > 100 µM | > 100 µM | 77.3 µM | > 100 µM
